This experiment addresses Vent(exo-) DNA polymerase (Thermococcus litoralis, UniProt P30317, D141A/E143A). To be noted: natural primer/template PA/T0, 40 °C, supplied reaction buffer, dATP 10–800 μM.

The structures appear in SMILES notation.

In general, Km refers to the concentration of substrate that gives half-maximal velocity. Turning to `Nc1ncnc2c1ncn2[C@H]1C[C@H](O)[C@@H](COP(=O)(O)OP(=O)(O)OP(=O)(O)O)O1` [dATP], the Km was 5.52 µM.

The values above are taken from article PMC1636466 (Nucleic Acids Research, 2006).
